Consider one compound from article PMC12368481, “Discovery of a Phenylalanine‐Derived Natural Compound as a Potential Dual Inhibitor of MDM2 and MDMX” (Chemmedchem, 2025).

The target in the assay is T1, MDMX (Homo sapiens, UniProt O15151).
T1 construct: gene MDM4
T1 sequence (O15151 1-110 limits assumed): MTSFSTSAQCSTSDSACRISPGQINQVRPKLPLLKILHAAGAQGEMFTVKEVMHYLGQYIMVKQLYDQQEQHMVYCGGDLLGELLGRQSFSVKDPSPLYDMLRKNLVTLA
Nature of the assay: SPR (Biacore T200), multicycle kinetics. The class given is binding. Particulars: read-out: MDMX / K D. (In SPR one partner is held on a chip, and binding of the other changes the refractive index at the surface.)

For the compound `COC(CCCCCCC(C)C)C(=O)N[C@@H](Cc1ccccc1)C(=O)O` (stereo partly shown) [P5], the Kd came out at 593 nM.
